Some test systems named below: PC-3; M14; COLO 205; Hs-578T; SK-MEL-2; U-251; SF-539; SR; IGROV-1; Malme-3M; CCRF-CEM; SN12C; UACC-257; MCF7; SF-295; A498; SNB-75; SK-OV-3; MOLT-4.
What all share (assay): growth of human tumour cells (NCI), 48 h

Results on ten compounds are retold here after ChEMBL document CHEMBL1201862, “PubChem BioAssay data set” (2004).

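Values below derive from 48-hour exposures of cells grown in 96-well plates, with endpoints linearly interpolated between the two concentrations bracketing the appropriate inhibition level. GI50 is the concentration that inhibits growth by half.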 Active and inactive are the calls of the source. No stated cut-off is given here; in the data, active = GI50 up to about 1.1 µM and inactive = higher.

`NCC1OC(n2cnc3c(N)ncnc32)CC1O` (stereo not given): the GI50 in the experiment with PC-3, with M14, in the experiment with COLO 205, with Hs-578T, in the experiment on SK-MEL-2 and in the experiment on U-251 was > 100 µM (inactive) in each case. Moreover, the GI50 in the experiment with SF-539, in the experiment with SR, in the experiment with IGROV-1, with Malme-3M, with CCRF-CEM and in the experiment on SN12C was > 100 µM (inactive) throughout. For the same compound, the GI50 in the experiment with UACC-257, with MCF7, with SF-295, in the experiment with A498, in the experiment on SNB-75 and with SK-OV-3 was > 100 µM (inactive) each time. The GI50 with MOLT-4 is > 100 µM (inactive).

As for `CC(=O)N1C(C(=O)NN2CCOCC2)CSC1c1ccccc1` (stereo not given), the GI50 with PC-3, in the experiment with M14, in the experiment on COLO 205, with Hs-578T, with SK-MEL-2 and in the experiment with U-251 was > 100 µM (inactive) each time. The GI50 in the experiment on SF-539, in the experiment with SR, with IGROV-1, in the experiment with Malme-3M, in the experiment on CCRF-CEM and in the experiment on SN12C was > 100 µM (inactive) each time. In addition, the GI50 in the experiment on UACC-257, in the experiment with MCF7, in the experiment on SF-295, in the experiment with A498, in the experiment with SNB-75 and in the experiment with SK-OV-3 was > 100 µM (inactive) each time. Besides, the GI50 with MOLT-4 was > 100 µM (inactive).

Take `O=C(O)c1c2c(cc3c1CC(Cc1ccccc1)C3=O)CCC2` (stereo not given): the GI50 is 64.3 µM (inactive) with PC-3; > 100 µM (inactive) with M14; > 100 µM (inactive) in the experiment with COLO 205; > 100 µM (inactive) with Hs-578T; > 100 µM (inactive) in the experiment with SK-MEL-2; > 100 µM (inactive) in the experiment on U-251. For the same compound, the GI50 was 76.6 µM (inactive) in the experiment on SF-539; 67.5 µM (inactive) with SR; > 100 µM (inactive) in the experiment with IGROV-1; > 100 µM (inactive) with Malme-3M; 43.7 µM (inactive) in the experiment on CCRF-CEM; > 100 µM (inactive) with SN12C. The GI50 in the experiment on UACC-257, in the experiment on MCF7, with SF-295, in the experiment with A498, with SNB-75 and with SK-OV-3 was > 100 µM (inactive) in each case. The GI50 in the experiment with MOLT-4 was 96.8 µM (inactive).

On to `NC(=O)NC(=O)c1ccc(NC(=O)CBr)cc1`, for which the GI50 in the experiment on PC-3 was 1.96 µM (inactive); with M14, 11.8 µM (inactive); in the experiment with COLO 205 it was 1.48 µM (inactive); in the experiment on Hs-578T it was 2.31 µM (inactive); in the experiment on SK-MEL-2, 1.99 µM (inactive); in the experiment with U-251, 0.984 µM (active). In addition, the GI50 in the experiment with SF-539 is 2.18 µM (inactive); in the experiment on SR, 0.333 µM (active); with IGROV-1, 2.03 µM (inactive); in the experiment on Malme-3M, 1.54 µM (inactive); in the experiment on CCRF-CEM, 0.0769 µM (active); with SN12C, 0.561 µM (active). Also, the GI50 in the experiment on UACC-257 is 1.94 µM (inactive); with MCF7 it was 1.76 µM (inactive); in the experiment with SF-295, 13.6 µM (inactive); with A498, 14.3 µM (inactive); with SNB-75 it was 1.81 µM (inactive); in the experiment with SK-OV-3, 3.27 µM (inactive). Besides, the GI50 in the experiment with MOLT-4 was 0.241 µM (active).

Regarding `CCC1=NC(C(F)(F)F)(C(F)(F)F)N=C(/N=C(/N)N(C)C(C(C)C)P(=O)(OC(C)C)OC(C)C)O1` (stereo not given), the GI50 in the experiment on PC-3, in the experiment on M14, with COLO 205, in the experiment on Hs-578T, in the experiment on SK-MEL-2 and in the experiment on U-251 was > 100 µM (inactive) throughout. Besides, the GI50 in the experiment on SF-539, in the experiment with SR, in the experiment on IGROV-1, in the experiment with Malme-3M, in the experiment on CCRF-CEM and with SN12C was > 100 µM (inactive) in each case. Also, the GI50 in the experiment on UACC-257, with MCF7, with SF-295, in the experiment on A498, with SNB-75 and with SK-OV-3 was > 100 µM (inactive) throughout. In the experiment on MOLT-4, the GI50 was > 100 µM (inactive).

In the case of `COc1cc2cc(C(=O)N3CC(COS(C)(=O)=O)c4ccc(NC(=O)OCc5ccccc5)cc43)[nH]c2c(OC)c1OC` (stereo not given), the GI50 is > 100 µM (inactive) in the experiment on PC-3; > 100 µM (inactive) with M14; > 100 µM (inactive) in the experiment on COLO 205; > 100 µM (inactive) in the experiment with Hs-578T; 67.1 µM (inactive) in the experiment with SK-MEL-2; > 100 µM (inactive) with U-251. Also, the GI50 with SF-539 was > 100 µM (inactive); in the experiment with SR it was 3.24 µM (inactive); with IGROV-1 it was > 100 µM (inactive); with Malme-3M, > 100 µM (inactive); in the experiment on CCRF-CEM, > 100 µM (inactive); in the experiment with SN12C, > 100 µM (inactive). The GI50 was > 100 µM (inactive) with UACC-257; 0.55 µM (active) in the experiment with MCF7; > 100 µM (inactive) in the experiment with SF-295; 43.3 µM (inactive) in the experiment on A498; 28.9 µM (inactive) in the experiment on SNB-75; > 100 µM (inactive) with SK-OV-3. The GI50 with MOLT-4 is 28.3 µM (inactive).

Take `N=c1c2c(ncn1N)Oc1c(c(-c3ccccc3)nn1-c1ccccc1)C2c1ccc(Cl)cc1` (stereo not given): the GI50 is 1.63 µM (inactive) in the experiment on PC-3; 1.56 µM (inactive) in the experiment on M14; 0.508 µM (active) in the experiment on COLO 205; 1.64 µM (inactive) in the experiment with Hs-578T; 1.69 µM (inactive) in the experiment on SK-MEL-2; 1.65 µM (inactive) with U-251. For the same compound, the GI50 in the experiment on SF-539 was 1.18 µM (inactive); in the experiment with SR, 0.918 µM (active); in the experiment with IGROV-1, 1.43 µM (inactive); in the experiment with Malme-3M, 1.61 µM (inactive); in the experiment with CCRF-CEM it was 2.47 µM (inactive); in the experiment on SN12C it was 1.79 µM (inactive). Moreover, the GI50 in the experiment on UACC-257 was 1.76 µM (inactive); in the experiment with MCF7 it was 1.44 µM (inactive); with SF-295 it was 1.66 µM (inactive); in the experiment on A498, 1.86 µM (inactive); in the experiment with SNB-75, 1.5 µM (inactive); in the experiment on SK-OV-3 it was 1.85 µM (inactive). Also, the GI50 in the experiment with MOLT-4 was 0.895 µM (active).

Consider `CCCC(=O)Nc1cn(COC)c(C(=O)N2C[C@H]3C[C@@]34C2=CC(=O)c2[nH]cc(C)c24)n1`, for which the GI50 is 12.6 µM (inactive) with PC-3; 8.15 µM (inactive) in the experiment on M14; 7.78 µM (inactive) in the experiment on COLO 205; 15.4 µM (inactive) with Hs-578T; 14 µM (inactive) with SK-MEL-2; 4.42 µM (inactive) in the experiment with U-251. The GI50 was 4.98 µM (inactive) with SF-539; 2.2 µM (inactive) with SR; 9.93 µM (inactive) with IGROV-1; 2.44 µM (inactive) with Malme-3M; 0.71 µM (active) with CCRF-CEM; 11.5 µM (inactive) with SN12C. For the same compound, the GI50 with UACC-257 is 8.71 µM (inactive); with MCF7, 1.32 µM (inactive); with SF-295 it was 7.94 µM (inactive); in the experiment on A498, 8.63 µM (inactive); in the experiment on SNB-75 it was 4.73 µM (inactive); with SK-OV-3, 16.7 µM (inactive). Also, the GI50 with MOLT-4 was 0.553 µM (active).

Consider `Cc1cc(O)c2c(c1O)C(=O)c1c(O)ccc(O)c1C2=O` [Cynodontin], for which the GI50 in the experiment on PC-3, in the experiment with M14, in the experiment with COLO 205, in the experiment on Hs-578T, with SK-MEL-2 and in the experiment on U-251 was > 100 µM (inactive) in each case. Further, the GI50 in the experiment on SF-539, in the experiment with SR, in the experiment with IGROV-1, in the experiment on Malme-3M, in the experiment with CCRF-CEM and in the experiment with SN12C was > 100 µM (inactive) in each case. Besides, the GI50 with UACC-257 is > 100 µM (inactive); in the experiment on MCF7, > 100 µM (inactive); in the experiment on SF-295 it was > 100 µM (inactive); with A498, > 100 µM (inactive); in the experiment with SNB-75 it was 52.5 µM (inactive); with SK-OV-3, > 100 µM (inactive). The GI50 with MOLT-4 was > 100 µM (inactive).

Turning to `CN(C)CCCN1c2ccccc2C(C)(C)c2ccccc21` [DIMETACRINE], the GI50 is 13.7 µM (inactive) in the experiment with PC-3; 15.5 µM (inactive) with M14; 14.6 µM (inactive) in the experiment with COLO 205; 15.1 µM (inactive) in the experiment with Hs-578T; 16.5 µM (inactive) with SK-MEL-2; 12.4 µM (inactive) with U-251. The GI50 in the experiment with SF-539 was 15.2 µM (inactive); in the experiment with SR it was 13.1 µM (inactive); in the experiment with IGROV-1, 17.9 µM (inactive); in the experiment on Malme-3M, 14.7 µM (inactive); in the experiment with CCRF-CEM, 22.4 µM (inactive); in the experiment with SN12C it was 14.4 µM (inactive). Besides, the GI50 in the experiment on UACC-257 is 11.7 µM (inactive); in the experiment on MCF7 it was 14.8 µM (inactive); with SF-295, 17.4 µM (inactive); in the experiment with A498, 11 µM (inactive); in the experiment with SNB-75 it was 10.9 µM (inactive); in the experiment on SK-OV-3, 13.9 µM (inactive). Also, in the experiment on MOLT-4, the GI50 is 13.7 µM (inactive).
